{"source": "patent US20230026259A1", "about": "“CA2 COMPOSITIONS AND METHODS FOR TUNABLE REGULATION” (Obsidian Therapeutics, Inc., priority 2019, published 2023)", "type_in_all_cases": "cell-based", "key": {"[1]": {"system": "human primary T cells", "assay": "Expression of IL15 chimeric constructs by flow cytometry (percent IL15 positive cells)", "settings": "for percentage of IL15 positive cells: human primary T cells, day 6, no ligand stated", "description": "In vitro activity of IL15 chimeric constructs OT-002019 ((Met; CD34 (aa 1-32 of WT, M1G, S32A); IL15 (30-162 of WT); Linker ((GS)15); CD8a Hinge and Transmembrane Domain; Linker (GS); stop), amino acid SEQ ID NO: 210876, nucleic acid SEQ ID NO: 210877) and OT-002090 ((Ig Kappa light chain leader; IL15 (49-162 of WT); Linker ((GS)15); B7-1 Hinge, Transmembrane Domain and Tail; Linker (GS); stop), amino acid SEQ ID NO: 210878, nucleic acid SEQ ID NO: 210879) and CA2 regulated IL15 chimeric construct (OT-002094) were tested in human primary T cells. Human primary T cells were transduced with lentivirus 24 hours after activation with CD3/CD28 beads. Cells were expanded for 10 days. […] The percentage of IL15 positive cells obtained for each treatment group is as follows (a) OT-002019: 82.3% (b) OT-002090: 43.6% (c) OT-002094 with DMSO: 0.7% (d) OT-002094 with 10 μM Acz: 27.9% and (e) untransduced (UT): 0.3%.\n(§1) To test IL15-dependent expansion, beads were removed on day 10 and cells were washed. […] The T cell numbers (Table 30) and the change in CD4/CD8 ratio (Table 31) were determined by flow cytometry."}, "[2]": {"system": "human primary T cells", "assay": "IL15-dependent expansion: T cell numbers and CD4/CD8 ratio by flow cytometry", "protocol": "as §1"}, "[3]": {"system": "NIH3T3 cells", "assay": "Destabilization mutant screening of human CA2 linked to GFP, ligand response by FACS (Valdecoxib, Celecoxib, Acetazolamide)", "protocol": "To identify destabilizing mutations of human CA2 that are stabilized upon ligand binding to CA2, two rounds of mutant screening were performed, using a lentivirus CA2 mutant library provided by Genscript (China). These methods were used to generate a library of mutant polypeptides using mutagenesis primers and error prone PCR. Lentiviral vectors expressing the template, wild-type human CA2 operably linked to GFP(OT-001986) was also provided by Genscript along with the CA2 mutant library. The library was packaged into lentivirus, transduced into NIH3T3 cells at a multiplicity of infection (MOI) of approximately 0.3 and select stable cell pools were derived by selecting with selection marker puromycin.\nTo identify cell pools containing destabilizing mutants of CA2 that are stabilizing when CA2 is bound to its corresponding ligand, cells were sorted using FACS. In the initial round, the bottom 15% of population that was GFP negative in the absence of ligand was selected. Cells were expanded and then treated with 10 μM Celecoxib for 24 hours and harvested for cell sorting. The top 11% GFP positive cells which were also responsive to ligand treatment compared to untreated were collected. Celecoxib was removed from the cultures and replaced with DMSO. […] Genomic DNA was isolated and amplified CA2 mutants were reintroduced to the lentiviral vectors where CA2 was operably linked to GFP. The constructs were transduced into NIH3T3 cells with lentivirus vectors for each clone. The cells were treated with 10 μM Valdecoxib or 10 μM Celecoxib for 24 hours and analyzed by FACS. […] In Table 25, the Construct ID (OT-XXXXXX) refers to the construct which includes the referenced CA2 mutant and the Library ID (LibCXXXXXX) refers to the CA2 mutant itself.\nThe response of NIH3T3 cells to varying doses of Valdecoxib or Celecoxib for 24 hours was measured and analyzed by FACS.\nClones treated with different ligands were compared to examine the behavior of each mutant with the ligands."}, "[4]": {"system": "NIH3T3 cells", "assay": "Immunoblotting of cell lysates for GFP after ligand treatment", "settings": "NIH3T3 cells, 0.3, 1, 3, 10 or 30 μM Acetazolamide, 24 hours", "protocol": "The protein expression in the presence of ligand was measured by immunoblotting the cell lysates for GFP.\nThe protein expression in the presence of ligand was measured by immunoblotting cell lysates for GFP."}, "[5]": {"settings": "day 0 in culture, untransduced T cells + exogenous IL15 1 ng/ml"}, "[6]": {"settings": "day 3 in culture, untransduced T cells + exogenous IL15 1 ng/ml"}, "[7]": {"settings": "day 7 in culture, untransduced T cells + exogenous IL15 1 ng/ml"}, "[8]": {"settings": "day 10 in culture, untransduced T cells + exogenous IL15 1 ng/ml"}}}
{"substance": "(Ig Kappa light chain leader; IL15 (49-162 of WT); Linker ((GS)15); B7-1 Hinge, Transmembrane Domain and Tail; Linker (GS); stop) [OT-002090]", "values": [{"measurement": "Percent of cells IL15 positive", "setting": "[1]; day 0 in culture, media alone", "value": 30, "unit": "%"}, {"measurement": "Percent of cells IL15 positive", "setting": "[1]; day 3 in culture, media alone", "value": 40, "unit": "%"}, {"measurement": "Percent of cells IL15 positive", "setting": "[1]; day 7 in culture, media alone", "value": 38, "unit": "%"}, {"measurement": "Percent of cells IL15 positive", "setting": "[1]; day 10 in culture, media alone", "value": 16, "unit": "%"}, {"measurement": "percentage of IL15 positive cells", "setting": "[1]", "value": 43.6, "unit": "%"}, {"measurement": "CD4/CD8 Ratio", "setting": "[2]; day 0 in culture, media alone", "value": 3.79}, {"measurement": "T Cell Numbers", "setting": "[2]; day 0 in culture, media alone", "value": "1.0E+06"}, {"measurement": "CD4/CD8 Ratio", "setting": "[2]; day 3 in culture, media alone", "value": 0.66}, {"measurement": "T Cell Numbers", "setting": "[2]; day 3 in culture, media alone", "value": "1.3E+06"}, {"measurement": "CD4/CD8 Ratio", "setting": "[2]; day 7 in culture, media alone", "value": 0.09}, {"measurement": "T Cell Numbers", "setting": "[2]; day 7 in culture, media alone", "value": "4.1E+06"}, {"measurement": "CD4/CD8 Ratio", "setting": "[2]; day 10 in culture, media alone", "value": 0.04}, {"measurement": "T Cell Numbers", "setting": "[2]; day 10 in culture, media alone", "value": "1.0E+07"}]}
{"substance": "(Met; CD34 (aa 1-32 of WT, M1G, S32A); IL15 (30-162 of WT); Linker ((GS)15); CD8a Hinge and Transmembrane Domain; Linker (GS); stop) [OT-002019]", "values": [{"measurement": "Percent of cells IL15 positive", "setting": "[1]; day 0 in culture, 3 uM ACZ", "value": 75, "unit": "%"}, {"measurement": "Percent of cells IL15 positive", "setting": "[1]; day 0 in culture, 10 uM ACZ", "value": 75, "unit": "%"}, {"measurement": "Percent of cells IL15 positive", "setting": "[1]; day 0 in culture, media alone", "value": 75, "unit": "%"}, {"measurement": "Percent of cells IL15 positive", "setting": "[1]; day 3 in culture, 3 uM ACZ", "value": 82, "unit": "%"}, {"measurement": "Percent of cells IL15 positive", "setting": "[1]; day 3 in culture, 10 uM ACZ", "value": 82, "unit": "%"}, {"measurement": "Percent of cells IL15 positive", "setting": "[1]; day 3 in culture, media alone", "value": 82, "unit": "%"}, {"measurement": "Percent of cells IL15 positive", "setting": "[1]; day 7 in culture, 3 uM ACZ", "value": 84, "unit": "%"}, {"measurement": "Percent of cells IL15 positive", "setting": "[1]; day 7 in culture, 10 uM ACZ", "value": 85, "unit": "%"}, {"measurement": "Percent of cells IL15 positive", "setting": "[1]; day 7 in culture, media alone", "value": 84, "unit": "%"}, {"measurement": "Percent of cells IL15 positive", "setting": "[1]; day 10 in culture, 3 uM ACZ", "value": 78, "unit": "%"}, {"measurement": "Percent of cells IL15 positive", "setting": "[1]; day 10 in culture, 10 uM ACZ", "value": 79, "unit": "%"}, {"measurement": "Percent of cells IL15 positive", "setting": "[1]; day 10 in culture, media alone", "value": 76, "unit": "%"}, {"measurement": "percentage of IL15 positive cells", "setting": "[1]", "value": 82.3, "unit": "%"}, {"measurement": "CD4/CD8 Ratio", "setting": "[2]; day 0 in culture, 3 uM ACZ", "value": 2.51}, {"measurement": "T Cell Numbers", "setting": "[2]; day 0 in culture, 3 uM ACZ", "value": "1.0E+06"}, {"measurement": "CD4/CD8 Ratio", "setting": "[2]; day 0 in culture, 10 uM ACZ", "value": 2.51}, {"measurement": "T Cell Numbers", "setting": "[2]; day 0 in culture, 10 uM ACZ", "value": "1.0E+06"}, {"measurement": "CD4/CD8 Ratio", "setting": "[2]; day 0 in culture, media alone", "value": 2.51}, {"measurement": "T Cell Numbers", "setting": "[2]; day 0 in culture, media alone", "value": "1.0E+06"}, {"measurement": "CD4/CD8 Ratio", "setting": "[2]; day 3 in culture, 3 uM ACZ", "value": 0.46}, {"measurement": "T Cell Numbers", "setting": "[2]; day 3 in culture, 3 uM ACZ", "value": "1.7E+06"}, {"measurement": "CD4/CD8 Ratio", "setting": "[2]; day 3 in culture, 10 uM ACZ", "value": 0.47}, {"measurement": "T Cell Numbers", "setting": "[2]; day 3 in culture, 10 uM ACZ", "value": "1.7E+06"}, {"measurement": "CD4/CD8 Ratio", "setting": "[2]; day 3 in culture, media alone", "value": 0.45}, {"measurement": "T Cell Numbers", "setting": "[2]; day 3 in culture, media alone", "value": "2.0E+06"}, {"measurement": "CD4/CD8 Ratio", "setting": "[2]; day 7 in culture, 3 uM ACZ", "value": 0.06}, {"measurement": "T Cell Numbers", "setting": "[2]; day 7 in culture, 3 uM ACZ", "value": "5.7E+06"}, {"measurement": "CD4/CD8 Ratio", "setting": "[2]; day 7 in culture, 10 uM ACZ", "value": 0.07}, {"measurement": "T Cell Numbers", "setting": "[2]; day 7 in culture, 10 uM ACZ", "value": "5.6E+06"}, {"measurement": "CD4/CD8 Ratio", "setting": "[2]; day 7 in culture, media alone", "value": 0.06}, {"measurement": "T Cell Numbers", "setting": "[2]; day 7 in culture, media alone", "value": "6.7E+06"}, {"measurement": "CD4/CD8 Ratio", "setting": "[2]; day 10 in culture, 3 uM ACZ", "value": 0.02}, {"measurement": "T Cell Numbers", "setting": "[2]; day 10 in culture, 3 uM ACZ", "value": "1.7E+07"}, {"measurement": "CD4/CD8 Ratio", "setting": "[2]; day 10 in culture, 10 uM ACZ", "value": 0.03}, {"measurement": "T Cell Numbers", "setting": "[2]; day 10 in culture, 10 uM ACZ", "value": "1.6E+07"}, {"measurement": "CD4/CD8 Ratio", "setting": "[2]; day 10 in culture, media alone", "value": 0.02}, {"measurement": "T Cell Numbers", "setting": "[2]; day 10 in culture, media alone", "value": "2.1E+07"}]}
{"substance": "CA2 (aa 2-260 of WT, I59N, G102R) [LibC000184]", "values": [{"measurement": "MFI, comparative analysis", "setting": "[3]; NIH3T3, Acetazolamide 10 μM", "value": 9295}, {"measurement": "MFI, comparative analysis", "setting": "[3]; NIH3T3, Acetazolamide 30 μM", "value": 10900}, {"measurement": "MFI, comparative analysis, normalized to parental day 1", "setting": "[3]; NIH3T3, Celecoxib μM (concentration not given)", "value": 4660.217}, {"measurement": "MFI, comparative analysis", "setting": "[3]; NIH3T3, DMSO", "value": 380}, {"measurement": "MFI, comparative analysis, normalized to parental day 1", "setting": "[3]; NIH3T3, Valdecoxib μM (concentration not given)", "value": 3478.892}, {"measurement": "GFP protein expression by immunoblot, Acetazolamide", "setting": "[4]", "value": "stabilization of GFP with increasing ligand doses"}]}
{"substance": "IL15", "values": [{"measurement": "Percent of cells IL15 positive", "setting": "[1]; [5]", "value": 0, "unit": "%"}, {"measurement": "Percent of cells IL15 positive", "setting": "[1]; [6]", "value": 1, "unit": "%"}, {"measurement": "Percent of cells IL15 positive", "setting": "[1]; [7]", "value": 0, "unit": "%"}, {"measurement": "Percent of cells IL15 positive", "setting": "[1]; [8]", "value": 1, "unit": "%"}, {"measurement": "CD4/CD8 Ratio", "setting": "[2]; [5]", "value": 5.64}, {"measurement": "T Cell Numbers", "setting": "[2]; [5]", "value": "1.0E+06"}, {"measurement": "CD4/CD8 Ratio", "setting": "[2]; [6]", "value": 2.57}, {"measurement": "T Cell Numbers", "setting": "[2]; [6]", "value": "3.2E+06"}, {"measurement": "CD4/CD8 Ratio", "setting": "[2]; [7]", "value": 0.64}, {"measurement": "T Cell Numbers", "setting": "[2]; [7]", "value": "5.4E+06"}, {"measurement": "CD4/CD8 Ratio", "setting": "[2]; [8]", "value": 0.28}, {"measurement": "T Cell Numbers", "setting": "[2]; [8]", "value": "1.2E+07"}]}
